Measurements as given in patent publication US20260285888A1, “HETEROCYCLIC COMPOUND AND USE THEREOF” (OTSUKA PHARMACEUTICAL CO., LTD., priority 2023, published 2026).

Tests used:
[1] = system: HL-60 cells; assay: in vitro; assay type: cell-based, human
Method in brief: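 HL-60 cells differentiated ~72 h with 10 nM PMA, then exposed ~24 h to compound at 300 μmol/L final in RPMI with 2% FBS. LDH release in supernatant gave cytotoxicity % scaled between untreated (0%) and lysis-buffer (100%) groups; triplicate.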

[2] = Study for confirmation of conversion to brexpiprazole in a buffer (stability of the evaluation compounds); assay type: physicochemical; settings: in buffer, average of duplicate; for Concentration of brexpiprazole formed: 60-minute reaction sample; for Concentration of evaluation compound decreased: decrease in 60-minute vs 0-minute reaction sample
Method in brief: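 Compounds (final 1 μmol/L, from 100 μmol/L working solutions) incubated in buffer at 37° C. for 0 or 60 min, in duplicate, after 3 min pre-incubation of the reaction solution. Reactions stopped with acetonitrile/isopropanol (4:1) containing internal standards; compound and formed brexpiprazole quantified against 0.01–1 μmol/L calibration samples.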

[3] = Dog irritation study (subcutaneous injection site, histopathological examination); assay type: in vivo; settings: stated as reason for choice as positive control
Method: Male beagle dogs were purchased at the age of 5-7 months from Kitayama Labes Co., Ltd. and used in the experiment after acclimatization. The breeding environment was as follows: feeding: 250 g of solid feed once a day, water intake: unlimited, number of animals per cage: 1, temperature: 21-25° C., humidity: 50-70%, lighting time: 7:00-19:00. The test formulation was subcutaneously administered to dogs anesthetized with 25 mg/kg thiopental sodium using a plastic syringe at a dose of 10 mg/kg per formulation, changing the position on the back. […] The collected tissues were fixed in 10% neutral buffered formalin, and hematoxylin and eosin-stained specimens were prepared for histopathological examination.

[4] = human, differentiated hl-60 cells, 24 h, 300 µM

Row | Compound | cytotoxicity (%) Evaluation compound results ([1]; 300 μmol/L, about 24 hours, PMA-differentiated HL-60 cells, LDH, no-treatment 0%, cell lysis buffer 100%) | Concentration of brexpiprazole formed [2] | Concentration of evaluation compound decreased [2] | cytotoxicity (%) Evaluation compound results [1, 4] | irritation when subcutaneously administered to dogs [3]
1 | CCOP(=O)([O-])OC[N+]1(CCCCOc2ccc3ccc(=O)[nH]c3c2)CCN(c2cccc3sccc23)CC1 [EX 3, (4-(benzo[b]thiophen-4-yl)-1-(4-((2-oxo-1,2-dihydroquinolin-7-yl)oxy)butyl)piperazin-1-ium-1-yl)methyl ethyl phosphate] | −7% | 0 nM | 10 nM | – | –
2 | COCCOCCOP(=O)([O-])OC[N+]1(CCCCOc2ccc3ccc(=O)[nH]c3c2)CCN(c2cccc3sccc23)CC1 [EX 7, (4-(benzo[b]thiophen-4-yl)-1-(4-((2-oxo-1,2-dihydroquinolin-7-yl)oxy)butyl)piperazin-1-ium-1-yl)methyl (2-(2-methoxyethoxy)ethyl)phosphate] | – | 0 nM | -60 nM | −4% | –
3 | CCCCCC(=O)OCn1c(=O)ccc2ccc(OCCCCN3CCN(c4cccc5sccc45)CC3)cc21 [Reference Example 3 compound, (7-(4-(4-(benzo[b]thiophen-4-yl)piperazin-1-yl)butoxy)-2-oxoquinolin-1(2H)-yl)methyl hexanoate] | – | – | – | – | showed irritation
4 | (4-(benzo[b]thiophen-4-yl)-1-(4-((2-oxo-1,2-dihydroquinolin-7-yl)oxy)butyl)piperazin-1-ium-1-yl)methyl(2-(2-butoxyethoxy)ethyl) phosphate [EX 99] | – | 0 nM | 0 nM | −6% | –
5 | (4-(benzo[b]thiophen-4-yl)-1-((4-((2-oxo-1,2-dihydroquinolin-7-yl)oxy)butyl)piperazin-1-ium-1-yl)methyl hydrogen phosphate [EX 1] | – | 0 nM | 0 nM | −7% | –
